Reference: patent US20260225997A1, “IONIZABLE AMINE LIPIDS” (Intellia Therapeutics, Inc., priority 2018, published 2026)
Read-outs that look alike come from different tables or passages of the source.

Columns and labels:
[1] = pKa measurement of unformulated amine lipid (fluorescence, method of Jayaraman et al.); format: physicochemical; conditions: 100 μM in 0.1 M phosphate buffer pH 4.5-9.0
Procedure: The pKa of each amine lipid was determined according to the method in Jayaraman, et al. (Angewandte Chemie, 2012) with the following adaptations. […] Lipid was diluted to 100 μM in 0.1 M phosphate buffer (Boston Bioproducts) where the pH ranged from 4.5-9.0. Fluorescence intensity was measured using excitation and emission wavelengths of 321 nm and 448 nm.

[2] = LNP average particle size and polydispersity by dynamic light scattering (Malvern Zetasizer); format: physicochemical; conditions: Table 14, Example 58: LNP, G282 1:1
Description: The LNPs have a size of about 1 to about 1,000 nm, about 10 to about 500 nm, about 20 to about 500 nm, in a sub-embodiment about 50 to about 400 nm, in a sub-embodiment about 50 to about 300 nm, in a sub-embodiment about 50 to about 200 nm, and in a sub-embodiment about 50 to about 150 nm, and in another sub-embodiment about 60 to about 120 nm. Preferably, the LNPs have a size from about 60 nm to about 100 nm. The average sizes (diameters) of the fully formed LNP, may be measured by dynamic light scattering on a Malvern Zetasizer. The LNP sample is diluted in phosphate buffered saline (PBS) so that the count rate is approximately 200-400 kcps. The data is presented as a weighted average of the intensity measure.
The LNPs disclosed herein have a size (e.g. Z-average diameter) of about 1 to about 250 nm. In some embodiments, the LNPs have a size of about 10 to about 200 nm. In further embodiments, the LNPs have a size of about 20 to about 150 nm. In some embodiments, the LNPs have a size of about 50 to about 150 nm. In some embodiments, the LNPs have a size of about 50 to about 100 nm. In some embodiments, the LNPs have a size of about 50 to about 120 nm. In some embodiments, the LNPs have a size of about 60 to about 100 nm. In some embodiments, the LNPs have a size of about 75 to about 150 nm. In some embodiments, the LNPs have a size of about 75 to about 120 nm. In some embodiments, the LNPs have a size of about 75 to about 100 nm. Unless indicated otherwise, all sizes referred to herein are the average sizes (diameters) of the fully formed nanoparticles, as measured by dynamic light scattering on a Malvern Zetasizer. The nanoparticle sample is diluted in phosphate buffered saline (PBS) so that the count rate is approximately 200-400 kcps. The data is presented as a weighted-average of the intensity measure (Z-average diameter).
Dynamic Light Scattering (“DLS”) is used to characterize the polydispersity index (“pdi”) and size of the LNPs of the present disclosure. DLS measures the scattering of light that results from subjecting a sample to a light source. PDI, as determined from DLS measurements, represents the distribution of particle size (around the mean particle size) in a population, with a perfectly uniform population having a PDI of zero.
LNP compositions are analyzed for average particle size, polydispersity index (pdi), total RNA content, encapsulation efficiency of RNA, and zeta potential. LNP compositions may be further characterized by lipid analysis, AF4-MALS, NTA, and/or cryo-EM. Average particle size and polydispersity are measured by dynamic light scattering (DLS) using a Malvern Zetasizer DLS instrument. LNP samples were diluted with PBS buffer prior to being measured by DLS. Z-average diameter which is an intensity-based measurement of average particle size was reported along with number average diameter and pdi. A Malvern Zetasizer instrument is also used to measure the zeta potential of the LNP. Samples are diluted 1:17 (50 μL into 800 μL) in 0.1×PBS, pH 7.4 prior to measurement.

[3] = RNA encapsulation efficiency of LNP (Ribogreen fluorescence assay); format: physicochemical; conditions: Table 14, Example 58: LNP, G282 (TTR) 1:1 w/w, N:P 6.0
Procedure: A fluorescence-based assay (Ribogreen®, ThermoFisher Scientific) is used to determine total RNA concentration and free RNA. Encapsulation efficiency is calculated as (Total RNA−Free RNA)/Total RNA. LNP samples are diluted appropriately with 1× TE buffer containing 0.2% Triton-X 100 to determine total RNA or 1× TE buffer to determine free RNA. Standard curves are prepared by utilizing the starting RNA solution used to make the compositions and diluted in 1× TE buffer+/−0.2% Triton-X 100. Diluted RiboGreen® dye (according to the manufacturer's instructions) is then added to each of the standards and samples and allowed to incubate for approximately 10 minutes at room temperature, in the absence of light. A SpectraMax M5 Microplate Reader (Molecular Devices) is used to read the samples with excitation, auto cutoff and emission wavelengths set to 488 nm, 515 nm, and 525 nm respectively. Total RNA and free RNA are determined from the appropriate standard curves.
Encapsulation efficiency is calculated as (Total RNA−Free RNA)/Total RNA. The same procedure may be used for determining the encapsulation efficiency of a DNA-based cargo component. For single-strand DNA Oligreen Dye may be used, and for double-strand DNA, Picogreen Dye.

TTR [4] = assay: TTR editing in mouse liver by NGS after i.v. LNP delivery of Cas9 mRNA and sgRNA; format: in vivo; conditions: CD-1 female mice
Procedure: Preparations of various LNP compositions were prepared with amine lipids. In assays for percent liver editing in mice, Cas9 mRNA and chemically modified sgRNA were formulated in LNPs, at either a 1:1 w/w ratio or a 1:2 w/w ratio. LNPs are formulated with a composition of a given ionizable lipid (e.g. an amine lipid), DSPC, cholesterol, and PEG-2k-DMG, with a 6.0 N:P ratio.
(§1) CD-1 female mice, ranging from 6-10 weeks of age were used in each study. Animals were weighed and grouped according to body weight for preparing dosing solutions based on group average weight. LNPs were dosed via the lateral tail vein in a volume of 0.2 mL per animal (approximately 10 mL per kilogram body weight). The animals were periodically observed post dose for adverse effects for at least 24 hours post dose. Animals were euthanized at 6 or 7 days by exsanguination via cardiac puncture under isoflurane anesthesia. Blood was collected into serum separator tubes or into tubes containing buffered sodium citrate for plasma as described herein. For studies involving in vivo editing, liver tissue was collected from each animal for DNA extraction and analysis.
Cohorts of mice were measured for liver editing by Next-Generation Sequencing (NGS).
In brief, to quantitatively determine the efficiency of editing at the target location in the genome, genomic DNA was isolated and deep sequencing was utilized to identify the presence of insertions and deletions introduced by gene editing.
PCR primers were designed around the target site (e.g., B2M), and the genomic area of interest was amplified. Additional PCR was performed according to the manufacturer's protocols (Illumina) to add the necessary chemistry for sequencing. The amplicons were sequenced on an Illumina MiSeq instrument. The reads were aligned to the […] after eliminating those having low quality scores. The resulting files containing the reads were mapped to the reference genome (BAM files), where reads that overlapped the target region of interest were selected and the number of wild type reads versus the number of reads which contain an insertion, substitution, or deletion was calculated.
The editing percentage (e.g., the “editing efficiency” or “percent editing”) is defined as the total number of sequence reads with insertions or deletions over the total number of sequence reads, including wild type.
CD-1 female mice were dosed i.v. at 0.1 mpk or 0.3 mpk. At 6 days post-dose, animals were sacrificed. For animals dosed with G282 targeting TTR, blood and the liver were collected and serum TTR and editing were measured. For animals dosed with G650 targeting B2M, liver was collected and editing was measured.

TTR [5] = assay: Transthyretin (TTR) ELISA analysis of mouse serum after LNP dosing; format: in vivo; conditions: for response vs control in vivo at 0.1 mg/kg / response vs control in vivo at 0.03 mg/kg / inhibition in vivo at 0.03 mg/kg: Mus musculus, iv; for response vs control in vivo at 0.1 mg/kg / response vs control in vivo at 0.03 mg/kg: read-out: Serum TTR % TSS; for inhibition in vivo at 0.03 mg/kg: read-out: Serum TTR (% KD)
Procedure: as §1
CD-1 female mice were dosed i.v. at 0.1 mpk or 0.3 mpk. […] For animals dosed with G282 targeting TTR, blood and the liver were collected and serum TTR and editing were measured. For animals dosed with G650 targeting B2M, liver was collected and editing was measured.
Blood was collected and the serum was isolated as indicated. The total mouse TTR serum levels were determined using a Mouse Prealbumin (Transthyretin) ELISA Kit (Aviva Systems Biology, Cat. OKIA00111). Briefly, sera were serial diluted with kit sample diluent to a final dilution of 10,000-fold for 0.1 mpk dose and 2,500-fold for 0.3 mpk. This diluted sample was then added to the ELISA plates and the assay was then carried out according to directions.

[6] = Example 58: 0.1 mpk i.v., 6 days post-dose, G282 1:1
[7] = 144 h, Example 58: 0.1 mpk i.v., 6 days post-dose, G282 1:1
[8] = Example 60: 0.1 mpk i.v., 6 days post-dose, G502 1:2
[9] = Example 63: 0.03 mpk i.v., 7 days post-dose, G282 1:1
[10] = Example 63: 0.1 mpk i.v., 7 days post-dose, G282 1:1
[11] = 168 h, Example 63: 0.03 mpk i.v., 7 days post-dose, G282 1:1
[12] = 168 h, Example 63: 0.1 mpk i.v., 7 days post-dose, G282 1:1
[13] = Example 64: Dose 0.03 mpk (table) i.v., 7 days post-dose, G282 1:1
[14] = 168 h, Example 64: Dose 0.03 mpk (table) i.v., 7 days post-dose, G282 1:1

pKa [1] | Compound | Editing Mean % Indel (TTR [4]; [9]) [%] | Editing Mean % Indel (TTR [4]; [10]) [%] | Serum TTR (TTR [5]; [9]) [µg/mL] | Serum TTR (TTR [5]; [10]) [µg/mL] | response vs control in vivo at 0.03 mg/kg (TTR [5]; [11]) [%] | response vs control in vivo at 0.1 mg/kg (TTR [5]; [12]) [%] | also measured
6.41 | CCCCCCCCOC(CCCCCCCN(CCO)CCCCCCCC(=O)OC(C)CCCCCC)OCCCCCCCC (stereo not shown) [Compound 27, octan-2-yl 8-((8,8-bis(octyloxy)octyl)(2-hydroxyethyl)amino)octanoate] | 27.86 | 57.10 | 497.99 | 197.22 | 61.7 | 24.4 | 
6.54 | CCCCCCCCOC(CCCCCCCN(CCO)CCCCCCCC(=O)OCCCCC)OCCCCCCCC [Compound 29, pentyl 8-((8,8-bis(octyloxy)octyl)(2-hydroxyethyl)amino)octanoate] | 5.76 | 15.96 | 718.48 | 660.46 | 89 | 81.8 | 
6.48 | CCCCCCCCOC(CCCCCCCN(CCO)CCCCCCCC(=O)OC(CC)CCCC)OCCCCCCCC (stereo not shown) [Compound 30, heptan-3-yl 8-((8,8-bis(octyloxy)octyl)(2-hydroxyethyl)amino)octanoate] | 27.64 | 62.48 | 514.23 | 125.89 | 63.7 | 15.6 | 

Further lines, the molecule ahead of its results:

Compound | pKa [1] | Editing Mean % Indel (TTR [4]; [9]) [%] | Editing Mean % Indel (TTR [4]; [10]) [%] | Serum TTR (TTR [5]; [9]) [µg/mL] | Serum TTR (TTR [5]; [10]) [µg/mL] | response vs control in vivo at 0.03 mg/kg (TTR [5]; [11]) [%] | response vs control in vivo at 0.1 mg/kg (TTR [5]; [12]) [%] | also measured
CCCCCCCCOC(CCCCCCCN(CCO)CCCCCCCCCC(=O)OCCCCCCC)OCCCCCCCC [Compound 11, heptyl 10-((8,8-bis(octyloxy)octyl)(2-hydroxyethyl)amino)decanoate] | 6.35 |  |  |  |  |  |  | Num Ave Size (nm) [2]: 54.58 nm; PDI [2]: 0.137; Z-Ave Size (nm) [2]: 89.3 nm; Encapsulation (%) [3]: 86%; Editing Mean % Indel (TTR [4]; [6]): 29.4%; Serum TTR (TTR [5]; [6]): 553 µg/mL; response vs control in vivo at 0.1 mg/kg (TTR [5]; [7]): 56%
CCCCCCCCCCCOC(=O)CCCCCN(CCO)CCCCCCCC(OCCCCCCCC)OCCCCCCCC [Compound 13, undecyl 6-((8,8-bis(octyloxy)octyl)(2-hydroxyethyl)amino)hexanoate] | 6.35 |  |  |  |  |  |  | Num Ave Size (nm) [2]: 63.34 nm; PDI [2]: 0.04; Z-Ave Size (nm) [2]: 77.34 nm; Encapsulation (%) [3]: 98%; Editing Mean % Indel (TTR [4]; [6]): 22.6%; Serum TTR (TTR [5]; [6]): 703 µg/mL; response vs control in vivo at 0.1 mg/kg (TTR [5]; [7]): 71%
CCCCCCCCCOC(=O)CCCCCCCN(CCO)CCCCCCCC(OC(C)CCCCCC)OC(C)CCCCCC (stereo not shown) [Compound 25, nonyl 8-[8,8-bis(1-methylheptoxy)octyl-(2-hydroxyethyl)amino]octanoate] | 6.1 |  |  |  |  |  |  | Editing Mean % Indel (TTR [4]; [8]): 15.3%; Serum TTR (TTR [5]; [8]): 985 µg/mL; response vs control in vivo at 0.1 mg/kg (TTR [5]; 144 h, Example 60: 0.1 mpk i.v., 6 days post-dose, G502 1:2): 69%
CCCCCCCCCOC(=O)CCCCCCCN(CCCCCCC(OCCCCCCCC)OCCCCCCCC)CCNC(C)=O [Compound 41, nonyl 8-((2-acetamidoethyl)(7,7-bis(octyloxy)heptyl)amino)octanoate] | 6.82 |  |  |  |  |  |  | Editing Mean % Indel (TTR [4]; [13]): 2.4%; Serum TTR (TTR [5]; [13]): 567.1 µg/mL; inhibition in vivo at 0.03 mg/kg (TTR [5]; [14]): 1%
CCCCCCCCCOC(=O)CCCCCCCN(CCCCCCC(OCCCCCCCC)OCCCCCCCC)CCCNC(C)=O [Compound 42, nonyl 8-((3-acetamidopropyl)(7,7-bis(octyloxy)heptyl)amino)octanoate] | 7.19 |  |  |  |  |  |  | Editing Mean % Indel (TTR [4]; [13]): 9.6%; Serum TTR (TTR [5]; [13]): 571.6 µg/mL; inhibition in vivo at 0.03 mg/kg (TTR [5]; [14]): 0.2%
